Experimental data: ChEMBL document CHEMBL1201862, “PubChem BioAssay data set” (2004)
Each block holds one molecule with its values, some of them ahead of it. The source made the active and inactive calls. Rule as the data show it, for most assays here: actives have a measured IC50 and inactives only a lower limit.

Assays:
[1] = target: Troponin, cardiac muscle (Homo sapiens, UniProt P19429+P45379+P63316); assay: Fluorescence-based biochemical high throughput dose response assay for activators of the calcium sensitivity of cardiac Regulated Thin Filaments (RTF). [Related pubchem assays (depositor defined):AID493008, AID493018, AID504382, AID504383]; assay type: protein-complex assay
[2] = target: DNA dC->dU-editing enzyme APOBEC-3A (Homo sapiens, UniProt P31941); assay: APOBEC3A DNA deaminase inhibitors, dose response, biochemical (AID 504722); assay type: functional
[3] = target: DNA dC->dU-editing enzyme APOBEC-3G (Homo sapiens, UniProt Q9HC16); assay: Dose Response confirmation of small molecule APOBEC3G DNA Deaminase Inhibitors via a fluorescence-based single-stranded DNA deaminase assay. [Related pubchem assays (depositor defined):AID493012, AID493028]; assay type: functional
[4] = target: T1, Nucleotide-binding oligomerization domain-containing protein 1 (Homo sapiens, UniProt Q9Y239); assay: NOD1 signaling inhibitors, SAR follow-up, revised (AID 2333); assay type: functional
T1 sequence (Q9Y239 whole entry): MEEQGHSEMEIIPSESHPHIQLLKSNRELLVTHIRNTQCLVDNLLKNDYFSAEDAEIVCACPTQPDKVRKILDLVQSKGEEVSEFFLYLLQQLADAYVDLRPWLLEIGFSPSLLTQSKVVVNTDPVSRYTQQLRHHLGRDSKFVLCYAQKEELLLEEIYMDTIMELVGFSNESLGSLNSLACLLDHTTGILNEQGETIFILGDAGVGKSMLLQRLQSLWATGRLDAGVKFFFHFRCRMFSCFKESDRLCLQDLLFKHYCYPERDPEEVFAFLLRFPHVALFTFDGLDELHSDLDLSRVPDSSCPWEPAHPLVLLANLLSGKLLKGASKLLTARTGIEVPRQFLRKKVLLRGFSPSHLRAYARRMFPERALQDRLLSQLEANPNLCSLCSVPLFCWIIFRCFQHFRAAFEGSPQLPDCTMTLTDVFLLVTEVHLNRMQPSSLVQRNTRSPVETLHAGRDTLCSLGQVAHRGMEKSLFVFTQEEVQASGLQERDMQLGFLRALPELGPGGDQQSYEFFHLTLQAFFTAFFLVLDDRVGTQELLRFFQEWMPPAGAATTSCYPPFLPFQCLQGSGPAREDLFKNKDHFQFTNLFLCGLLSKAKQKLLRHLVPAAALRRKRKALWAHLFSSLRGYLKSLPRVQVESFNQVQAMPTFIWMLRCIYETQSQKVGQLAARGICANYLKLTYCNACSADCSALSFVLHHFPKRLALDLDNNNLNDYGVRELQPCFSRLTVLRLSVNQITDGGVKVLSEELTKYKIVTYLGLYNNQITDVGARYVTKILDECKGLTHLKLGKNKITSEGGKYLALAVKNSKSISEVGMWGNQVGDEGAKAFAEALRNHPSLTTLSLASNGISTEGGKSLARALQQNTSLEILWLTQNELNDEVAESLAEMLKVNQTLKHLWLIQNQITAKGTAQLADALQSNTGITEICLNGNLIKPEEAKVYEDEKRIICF

[5] = target: Nucleotide-binding oligomerization domain-containing protein 2 (Homo sapiens, UniProt Q9HC29); assay: PubChem AID 2334; assay type: functional
[6] = target: Tumor necrosis factor (Homo sapiens, UniProt P01375); assay: TNFa-triggered NF-kB activation inhibitors, SAR follow-up, cell-based, revised (AID 2337); assay type: functional
[7] = tested on: HEK293; assay: cells; conditions: Homo sapiens;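 also: cells exposed to compound for 14 hours overnight before viability readout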
[8] = target: T2, Tyrosine-protein phosphatase non-receptor type 7 (Homo sapiens, UniProt P35236); assay: redox-dependent HePTP inhibition, mechanism study, biochemical, fluorescence (AID 2068); assay type: functional
T2 sequence (P35236 whole entry): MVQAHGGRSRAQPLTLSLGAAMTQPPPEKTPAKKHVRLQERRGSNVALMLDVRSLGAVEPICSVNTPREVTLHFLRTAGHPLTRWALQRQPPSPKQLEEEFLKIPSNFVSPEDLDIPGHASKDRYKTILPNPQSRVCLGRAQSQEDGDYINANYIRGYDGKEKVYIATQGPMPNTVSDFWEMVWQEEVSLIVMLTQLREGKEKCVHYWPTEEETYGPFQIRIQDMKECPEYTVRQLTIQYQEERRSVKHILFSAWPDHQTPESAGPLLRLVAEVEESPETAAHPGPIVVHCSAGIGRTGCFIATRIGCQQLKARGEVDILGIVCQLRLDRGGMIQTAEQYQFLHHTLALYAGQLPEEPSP

[9] = target: G2/mitotic-specific cyclin-B1 (Homo sapiens, UniProt P14635); assay: G2/M cell cycle arrest in HeLa, late-stage follow-up, mechanism study for Wee1 degradation inhibitor project, FACS, panel member Cyclin B Degradation (AID 2088)
[10] = target: Wee1-like protein kinase (Homo sapiens, UniProt P30291); assay: G2/M cell cycle arrest in HeLa, late-stage follow-up, mechanism study for Wee1 degradation inhibitor project, FACS, panel member Wee1 Degradation (AID 2088)
[11] = target: T3, Corticotropin-releasing factor receptor 2/Corticotropin-releasing factor-binding protein (Homo sapiens, UniProt P24387+Q13324); assay: Dose Response confirmation of uHTS hits for small molecule antagonists of the CRF-binding protein and CRF-R2 receptor complex.; assay type: functional; conditions: read-out: IC50_Mean
T3 sequence (Q13324 whole entry): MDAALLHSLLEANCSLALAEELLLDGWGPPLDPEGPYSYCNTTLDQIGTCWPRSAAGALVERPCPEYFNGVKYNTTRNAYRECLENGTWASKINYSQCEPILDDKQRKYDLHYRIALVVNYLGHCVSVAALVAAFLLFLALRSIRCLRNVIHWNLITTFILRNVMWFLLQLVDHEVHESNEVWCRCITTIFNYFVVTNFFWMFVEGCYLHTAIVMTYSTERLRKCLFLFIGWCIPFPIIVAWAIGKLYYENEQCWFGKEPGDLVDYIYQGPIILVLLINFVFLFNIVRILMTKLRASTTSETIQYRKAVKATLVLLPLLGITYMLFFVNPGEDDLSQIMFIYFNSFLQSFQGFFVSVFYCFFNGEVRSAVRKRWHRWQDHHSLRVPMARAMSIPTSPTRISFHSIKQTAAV
T3 sequence (P24387 whole entry): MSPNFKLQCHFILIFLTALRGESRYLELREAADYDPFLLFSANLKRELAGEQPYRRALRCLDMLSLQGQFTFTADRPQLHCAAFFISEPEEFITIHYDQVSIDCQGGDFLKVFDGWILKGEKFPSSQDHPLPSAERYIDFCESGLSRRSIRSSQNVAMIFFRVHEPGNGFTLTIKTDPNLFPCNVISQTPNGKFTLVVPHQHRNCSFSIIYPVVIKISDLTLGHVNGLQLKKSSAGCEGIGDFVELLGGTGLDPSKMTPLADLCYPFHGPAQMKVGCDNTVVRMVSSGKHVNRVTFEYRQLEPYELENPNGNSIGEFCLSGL

[12] = target: T3, Corticotropin-releasing factor receptor 2/Corticotropin-releasing factor-binding protein; assay: activators of CRF receptor 2 with binding protein – uHTS hits, confirmation (AID 602473); assay type: functional; conditions: read-out: EC50_Mean
[13] = target: Cyclin-dependent kinase 5/CDK5 activator 1 (Homo sapiens, UniProt Q00535); assay: CDK5/p35 kinase inhibitors, dose response, biochemical, cherry-picked samples, set 2 (AID 504545)
[14] = target: Melanin-concentrating hormone receptor 1 (Homo sapiens, UniProt Q99705); assay: Late-stage fluorescence-based counterscreen for antagonists of the G-protein coupled receptor 7 (GPR7): cell-based dose response assay to identify antagonists of the melanin-concentrating hormone receptor 1 (MCHR1). [Related pubchem assays (depositor defined):AID1861, AID1880, AID1952, AID2148, AID2251, AID2257, AID485339]; assay type: functional;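 also: stimulated with 30 nM MCH peptide agonist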

Compound: O=C(NC1CCCCC1)c1cc2nc3c(c(C(F)(F)F)n2n1)CCCC3
- EC50 [1]: > 71.5 µM (inactive)

Compound: CN(CC(=O)Nc1nnc(S)s1)S(=O)(=O)c1cccc2cccnc12
- IC50 [2]: > 100 µM (inactive)
- IC50 [3]: 1.95 µM (active)

Compound: Cc1cc(C(=O)NC2CCCc3c2cnn3-c2ccccc2F)n(Cc2ccc(F)cc2)n1 (centres undefined)
- IC50 [4]: > 20 µM (inactive)
- IC50 [5]: > 20 µM (inactive)
- IC50 [6]: > 20 µM (inactive)
- IC50 [7]: > 20 µM (inactive)

Compound: Nc1ccc2c(c1)C(=NO)c1ccccc1-2
- IC50 [11]: > 47.1 µM (inactive)
- EC50 [12]: > 53 µM (inactive)
- AC50 [13]: 39.9 µM (active)

The next lines start with the values.

- IC50 [8]: 10.4 µM (active)
Compound: CCOc1ccc(NC(=O)Nc2ccc3nc(-c4ccco4)c(-c4ccco4)nc3c2)cc1

- EC50 [9]: > 49.7 µM (inactive)
- EC50 [10]: > 49.7 µM (inactive)
Compound: COc1ccc(C(=O)Nc2cc(C)nn2-c2nc(C)cc(O)n2)cc1

- IC50 [14]: 6.9 µM (active)
Compound: COC(=O)c1cnn(-c2ccc(C(C)C)cc2)c(=O)c1Oc1ccc(OC)cc1
